Reference: the supplement of paper PMC10307832

Assays:
Assay in all cases: relative viability (nuclei count vs DMSO), 5 days (fraction); higher = more cells survive
HCC-78 = test system: HCC-78
In short: (§1)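 Values are medians from duplicate plates. Each reflects relative viability, defined as the nuclei count of treated wells over that of vehicle wells. Lung cancer cell lines in 1536-well plates were pin-tool dosed one day after seeding with one drug alone or with a fixed anchor-drug dose plus five library-drug doses (not always all listed) in √10 steps, then fixed, stained and imaged at 4× after 5 days.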

NCI-H1975 = test system: NCI-H1975
In short: as §1

LXF-289 = test system: LXF-289
In short: as §1

PC-3 [JPC-3] = test system: PC-3 [JPC-3]
In short: as §1

LC-2-ad = test system: LC-2-ad
In short: as §1

LCLC-97TM1 = test system: LCLC-97TM1
In short: as §1

NCI-H838 = test system: NCI-H838
In short: as §1

NCI-H1651 = test system: NCI-H1651
In short: as §1

SK-MES-1 = test system: SK-MES-1
In short: as §1

LK-2 = test system: LK-2
In short: as §1

ChaGo-K-1 = test system: ChaGo-K-1
In short: as §1

NCI-H2087 = test system: NCI-H2087
In short: as §1

NCI-H596 = test system: NCI-H596
In short: as §1

LU99A = test system: LU99A
In short: as §1

NCI-H1355 = test system: NCI-H1355
In short: as §1

BEN = test system: BEN
In short: as §1

NCI-H1666 = test system: NCI-H1666
In short: as §1

NCI-H1944 = test system: NCI-H1944
In short: as §1

COc1cc2nccc(Oc3ccc(NC(=O)Nc4cc(C)on4)c(Cl)c3)c2cc1OC [Tivozanib] + CC1(C)CCC(c2ccc(Cl)cc2)=C(CN2CCN(c3ccc(C(=O)NS(=O)(=O)c4ccc(N[C@H](CCN5CCOCC5)CSc5ccccc5)c(S(=O)(=O)C(F)(F)F)c4)cc3)CC2)C1 [Navitoclax] (partner 0.5 µM)
relative viability (HCC-78; first compound 0.005 µM): 0.656 | relative viability (HCC-78; first compound 0.01581 µM): 0.808 | relative viability (HCC-78; first compound 0.05 µM): 0.765 | relative viability (HCC-78; first compound 0.1581 µM): 0.756 | relative viability (HCC-78; first compound 0.5 µM): 0.677 | relative viability (NCI-H1975; first compound 0.005 µM): 1.1 | relative viability (NCI-H1975; first compound 0.01581 µM): 1.19 | relative viability (NCI-H1975; first compound 0.05 µM): 1.09 | relative viability (NCI-H1975; first compound 0.1581 µM): 1.06 | relative viability (NCI-H1975; first compound 0.5 µM): 0.884 | relative viability (LXF-289; first compound 0.005 µM): 0.916 | relative viability (LXF-289; first compound 0.01581 µM): 0.942 | relative viability (LXF-289; first compound 0.05 µM): 0.915 | relative viability (LXF-289; first compound 0.1581 µM): 1.01 | relative viability (LXF-289; first compound 0.5 µM): 0.926 | relative viability (PC-3 [JPC-3]; first compound 0.005 µM): 0.735 | relative viability (PC-3 [JPC-3]; first compound 0.01581 µM): 0.87 | relative viability (PC-3 [JPC-3]; first compound 0.05 µM): 0.772 | relative viability (PC-3 [JPC-3]; first compound 0.1581 µM): 0.788 | relative viability (PC-3 [JPC-3]; first compound 0.5 µM): 0.809 | relative viability (LC-2-ad; first compound 0.005 µM): 0.35 | relative viability (LC-2-ad; first compound 0.01581 µM): 0.48 | relative viability (LC-2-ad; first compound 0.05 µM): 0.535 | relative viability (LC-2-ad; first compound 0.1581 µM): 0.448 | relative viability (LC-2-ad; first compound 0.5 µM): 0.427 | relative viability (LCLC-97TM1; first compound 0.005 µM): 0.412 | relative viability (LCLC-97TM1; first compound 0.01581 µM): 0.288 | relative viability (LCLC-97TM1; first compound 0.1581 µM): 0.413 | relative viability (LCLC-97TM1; first compound 0.5 µM): 0.425 | relative viability (NCI-H838; first compound 0.005 µM): 1.09 | relative viability (NCI-H838; first compound 0.01581 µM): 1.16 | relative viability (NCI-H838; first compound 0.05 µM): 1.2 | relative viability (NCI-H838; first compound 0.5 µM): 1.12 | relative viability (NCI-H1651; first compound 0.005 µM): 0.979 | relative viability (NCI-H1651; first compound 0.01581 µM): 0.934 | relative viability (NCI-H1651; first compound 0.05 µM): 1.09 | relative viability (NCI-H1651; first compound 0.1581 µM): 0.983 | relative viability (NCI-H1651; first compound 0.5 µM): 1.15 | relative viability (SK-MES-1; first compound 0.005 µM): 1.25 | relative viability (SK-MES-1; first compound 0.01581 µM): 1.16 | relative viability (SK-MES-1; first compound 0.05 µM): 1.4 | relative viability (SK-MES-1; first compound 0.1581 µM): 1.17 | relative viability (SK-MES-1; first compound 0.5 µM): 1.18 | relative viability (LK-2; first compound 0.005 µM): 0.819 | relative viability (LK-2; first compound 0.01581 µM): 0.789 | relative viability (LK-2; first compound 0.05 µM): 0.952 | relative viability (LK-2; first compound 0.1581 µM): 0.802 | relative viability (LK-2; first compound 0.5 µM): 0.644 | relative viability (ChaGo-K-1; first compound 0.005 µM): 0.846 | relative viability (ChaGo-K-1; first compound 0.01581 µM): 1.03 | relative viability (ChaGo-K-1; first compound 0.05 µM): 0.802 | relative viability (ChaGo-K-1; first compound 0.1581 µM): 0.645 | relative viability (ChaGo-K-1; first compound 0.5 µM): 0.799 | relative viability (NCI-H2087; first compound 0.005 µM): 0.906 | relative viability (NCI-H2087; first compound 0.01581 µM): 1.07 | relative viability (NCI-H2087; first compound 0.05 µM): 1.06 | relative viability (NCI-H2087; first compound 0.1581 µM): 0.917 | relative viability (NCI-H2087; first compound 0.5 µM): 0.906 | relative viability (NCI-H596; first compound 0.005 µM): 0.94 | relative viability (NCI-H596; first compound 0.01581 µM): 1.07 | relative viability (NCI-H596; first compound 0.05 µM): 0.936 | relative viability (NCI-H596; first compound 0.1581 µM): 0.911 | relative viability (NCI-H596; first compound 0.5 µM): 0.922 | relative viability (LU99A; first compound 0.005 µM): 0.795 | relative viability (LU99A; first compound 0.01581 µM): 0.749 | relative viability (LU99A; first compound 0.05 µM): 0.849 | relative viability (LU99A; first compound 0.5 µM): 0.794 | relative viability (NCI-H1355; first compound 0.005 µM): 0.844 | relative viability (NCI-H1355; first compound 0.01581 µM): 0.989 | relative viability (NCI-H1355; first compound 0.05 µM): 0.996 | relative viability (NCI-H1355; first compound 0.5 µM): 1 | relative viability (BEN; first compound 0.005 µM): 0.0616 | relative viability (BEN; first compound 0.01581 µM): 0.0524 | relative viability (BEN; first compound 0.05 µM): 0.0639 | relative viability (BEN; first compound 0.5 µM): 0.0625 | relative viability (NCI-H1666; first compound 0.005 µM): 0.993 | relative viability (NCI-H1666; first compound 0.01581 µM): 0.96 | relative viability (NCI-H1666; first compound 0.05 µM): 1.02 | relative viability (NCI-H1666; first compound 0.1581 µM): 0.891 | relative viability (NCI-H1666; first compound 0.5 µM): 0.867 | relative viability (NCI-H1944; first compound 0.005 µM): 1.08 | relative viability (NCI-H1944; first compound 0.01581 µM): 1.02 | relative viability (NCI-H1944; first compound 0.05 µM): 1.05 | relative viability (NCI-H1944; first compound 0.1581 µM): 0.891 | relative viability (NCI-H1944; first compound 0.5 µM): 1.1
